Experimental data from PubChem BioAssay AID2060599 (Molecular Pharmacology Branch, DTP, NCI, 2025).
Several values for one entry are separate records, joined by “and”; a condition that tells them apart may be missing. Identical values can stand only once. Each block holds one molecule with its values, some of them ahead of it.

System: 817829-284-R-J1-PDC complex spheroids, viability
Assay: Anticancer human tumor 817829-284-R-J1-PDC patient-derived colon adenocarcinoma cell line growth inhibition [CLK]
Conditions: for viability, T/C: stronger effect = lower value
In short: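 Multi-cell-type spheroids combined patient-derived tumor cells with HUVEC endothelial cells and human mesenchymal stem cells. Paired agents were dosed in half-log steps down from about clinical Cmax, or from 10 microM where Cmax was unknown.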

[1] = curve of first compound, second compound 0.0316 µM
[2] = curve of first compound, second compound 0.1 µM
[3] = curve of first compound, second compound 0.316 µM
[4] = curve of first compound, second compound 1 µM
[5] = curve of first compound, second compound 3.16 µM
[6] = curve of first compound, second compound 10 µM
[7] = second compound 0.0316 µM, first compound 0.0316 µM
[8] = second compound 0.0316 µM, first compound 0.1 µM
[9] = second compound 0.0316 µM, first compound 0.316 µM
[10] = second compound 0.0316 µM, first compound 1 µM
[11] = second compound 0.1 µM, first compound 0.0316 µM
[12] = second compound 0.1 µM, first compound 0.1 µM
[13] = second compound 0.1 µM, first compound 0.316 µM
[14] = second compound 0.1 µM, first compound 1 µM
[15] = second compound 0.316 µM, first compound 0.0316 µM
[16] = second compound 0.316 µM, first compound 0.1 µM
[17] = second compound 0.316 µM, first compound 0.316 µM
[18] = second compound 0.316 µM, first compound 1 µM
[19] = second compound 1 µM, first compound 0.0316 µM
[20] = second compound 1 µM, first compound 0.1 µM
[21] = second compound 1 µM, first compound 0.316 µM
[22] = second compound 1 µM, first compound 1 µM
[23] = second compound 3.16 µM, first compound 0.0316 µM
[24] = second compound 3.16 µM, first compound 0.1 µM
[25] = second compound 3.16 µM, first compound 0.316 µM
[26] = second compound 3.16 µM, first compound 1 µM
[27] = second compound 10 µM, first compound 0.0316 µM
[28] = second compound 10 µM, first compound 0.1 µM
[29] = second compound 10 µM, first compound 0.316 µM
[30] = second compound 10 µM, first compound 1 µM
[31] = second compound 0.0316 µM, first compound 3.16 µM
[32] = second compound 0.0316 µM, first compound 10 µM
[33] = second compound 0.1 µM, first compound 3.16 µM
[34] = second compound 0.1 µM, first compound 10 µM
[35] = second compound 0.316 µM, first compound 3.16 µM
[36] = second compound 0.316 µM, first compound 10 µM
[37] = second compound 1 µM, first compound 3.16 µM
[38] = second compound 1 µM, first compound 10 µM
[39] = second compound 3.16 µM, first compound 3.16 µM
[40] = second compound 3.16 µM, first compound 10 µM
[41] = second compound 10 µM, first compound 3.16 µM
[42] = second compound 10 µM, first compound 10 µM
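Also: spheroids exposed to the agents for seven days before readout.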

SMILES: COc1c(OCCCN2CCOCC2)ccc2c3n(c(=NC(=O)c4cnc(N)nc4)nc12)CCN3 + CNC(=O)c1ccc(Nc2nc(OC3CCCC3)c3c(-c4ccc5nc(C)oc5c4)c[nH]c3n2)c(OC)c1
- IC50 [1]: 33.8 nM
- IC50 [2]: < 3.16 nM
- IC50 [3]: < 3.16 nM
- IC50 [4]: < 3.16 nM
- IC50 [5]: < 3.16 nM
- IC50 [6]: < 3.16 nM
- viability, T/C (second compound 0.0316 µM, first compound 0.00316 µM): 39.8%
- viability, T/C (second compound 0.0316 µM, first compound 0.01 µM): 41.3%
- viability, T/C [7]: 74.9%
- viability, T/C [8]: 19.1%
- viability, T/C [9]: 4.03%
- viability, T/C [10]: 1.87%
- viability, T/C (second compound 0.1 µM, first compound 0.00316 µM): 24%
- viability, T/C (second compound 0.1 µM, first compound 0.01 µM): 21%
- viability, T/C [11]: 15.8%
- viability, T/C [12]: 9.46%
- viability, T/C [13]: 3.69%
- viability, T/C [14]: 1.76%
- viability, T/C (second compound 0.316 µM, first compound 0.00316 µM): 20.6%
- viability, T/C (second compound 0.316 µM, first compound 0.01 µM): 22%
- viability, T/C [15]: 18.4%
- viability, T/C [16]: 9.72%
- viability, T/C [17]: 3.22%
- viability, T/C [18]: 2.08%
- viability, T/C (second compound 1 µM, first compound 0.00316 µM): 31.5%
- viability, T/C (second compound 1 µM, first compound 0.01 µM): 20.5%
- viability, T/C [19]: 11.6%
- viability, T/C [20]: 9.58%
- viability, T/C [21]: 2.07%
- viability, T/C [22]: 1.92%
- viability, T/C (second compound 3.16 µM, first compound 0.00316 µM): 26.7%
- viability, T/C (second compound 3.16 µM, first compound 0.01 µM): 24%
- viability, T/C [23]: 11.9%
- viability, T/C [24]: 5.77%
- viability, T/C [25]: 2.1%
- viability, T/C [26]: 1.82%
- viability, T/C (second compound 10 µM, first compound 0.00316 µM): 19.7%
- viability, T/C (second compound 10 µM, first compound 0.01 µM): 16%
- viability, T/C [27]: 19.1%
- viability, T/C [28]: 6.5%
- viability, T/C [29]: 6.46%
- viability, T/C [30]: 1.67%

SMILES: C=C(F)C(=O)N1CCN(c2nc(OCC3CCCN3C)nc3c2CCN(c2cccc4cccc(Cl)c24)C3)CC1CC#N (configuration not stated)
- viability, T/C (compound 0.0316 µM): 99.4% and 105%
- viability, T/C (compound 0.1 µM): 73% and 144%
- viability, T/C (compound 0.316 µM): 141% and 96.3%
- viability, T/C (compound 1 µM): 77.1% and 84.6%
- viability, T/C (compound 3.16 µM): 20.8% and 21.4%
- viability, T/C (compound 10 µM): 0.08% and 0.14%
- IC50 (curve of compound): 1770 nM and 1850 nM

SMILES: C#Cc1c(F)ccc2cc(O)cc(-c3ncc4c(N5CC6CCC(C5)N6)nc(OCC56CCCN5CC(F)C6)nc4c3F)c12 (configuration not stated) + CNC(=O)c1ccc(Nc2nc(OC3CCCC3)c3c(-c4ccc5nc(C)oc5c4)c[nH]c3n2)c(OC)c1
- IC50 [1]: < 31.6 nM
- IC50 [2]: < 31.6 nM
- IC50 [3]: < 31.6 nM
- IC50 [4]: < 31.6 nM
- IC50 [5]: < 31.6 nM
- IC50 [6]: 34.4 nM
- viability, T/C [7]: 34.1%
- viability, T/C [8]: 43.8%
- viability, T/C [9]: 24.7%
- viability, T/C [10]: 22.7%
- viability, T/C [31]: 19.7%
- viability, T/C [32]: 17.7%
- viability, T/C [11]: 27%
- viability, T/C [12]: 26.2%
- viability, T/C [13]: 22.1%
- viability, T/C [14]: 29.4%
- viability, T/C [33]: 26%
- viability, T/C [34]: 30.8%
- viability, T/C [15]: 33.1%
- viability, T/C [16]: 20.1%
- viability, T/C [17]: 23.5%
- viability, T/C [18]: 33.7%
- viability, T/C [35]: 25.6%
- viability, T/C [36]: 15.5%
- viability, T/C [19]: 23.1%
- viability, T/C [20]: 18.2%
- viability, T/C [21]: 19%
- viability, T/C [22]: 38%
- viability, T/C [37]: 24.4%
- viability, T/C [38]: 10%
- viability, T/C [23]: 24.8%
- viability, T/C [24]: 20.4%
- viability, T/C [25]: 23%
- viability, T/C [26]: 20.9%
- viability, T/C [39]: 20.8%
- viability, T/C [40]: 10.5%
- viability, T/C [27]: 52.5%
- viability, T/C [28]: 20.1%
- viability, T/C [29]: 22.6%
- viability, T/C [30]: 18.4%
- viability, T/C [41]: 17.7%
- viability, T/C [42]: 9.34%

The next lines start with results.

- IC50 [1]: < 31.6 nM
- IC50 [2]: < 31.6 nM
- IC50 [3]: < 31.6 nM
- IC50 [4]: < 31.6 nM
- IC50 [5]: < 31.6 nM
- IC50 [6]: < 31.6 nM
SMILES: CCCS(=O)(=O)Nc1ccc(F)c(C(=O)c2c[nH]c3ncc(-c4ccc(Cl)cc4)cc23)c1F + CNC(=O)c1ccc(Nc2nc(OC3CCCC3)c3c(-c4ccc5nc(C)oc5c4)c[nH]c3n2)c(OC)c1
- viability, T/C [7]: 31.8%
- viability, T/C [8]: 23.5%
- viability, T/C [9]: 33.4%
- viability, T/C [10]: 27%
- viability, T/C [31]: 33%
- viability, T/C [32]: 10.1%
- viability, T/C [11]: 19.1%
- viability, T/C [12]: 16.2%
- viability, T/C [13]: 16.2%
- viability, T/C [14]: 20.5%
- viability, T/C [33]: 21.1%
- viability, T/C [34]: 16.3%
- viability, T/C [15]: 38%
- viability, T/C [16]: 22.6%
- viability, T/C [17]: 18%
- viability, T/C [18]: 15.2%
- viability, T/C [35]: 18.3%
- viability, T/C [36]: 15.7%
- viability, T/C [19]: 17.8%
- viability, T/C [20]: 15%
- viability, T/C [21]: 18.6%
- viability, T/C [22]: 12.8%
- viability, T/C [37]: 11.6%
- viability, T/C [38]: 6.76%
- viability, T/C [23]: 16.4%
- viability, T/C [24]: 15.9%
- viability, T/C [25]: 21.2%
- viability, T/C [26]: 22.2%
- viability, T/C [39]: 9.76%
- viability, T/C [40]: 12.3%
- viability, T/C [27]: 21.7%
- viability, T/C [28]: 17.4%
- viability, T/C [29]: 12%
- viability, T/C [30]: 17.2%
- viability, T/C [41]: 9.32%
- viability, T/C [42]: 5.05%

- IC50 (curve of compound): 4310 nM
SMILES: CC1(C)CCC(CN2CCN(c3ccc(C(=O)NS(=O)(=O)c4ccc(NCC5CCOCC5)c([N+](=O)[O-])c4)c(Oc4cnc5[nH]ccc5c4)c3)CC2)=C(c2ccc(Cl)cc2)C1
- viability, T/C (compound 0.0316 µM): 103%
- viability, T/C (compound 0.1 µM): 85.1%
- viability, T/C (compound 0.316 µM): 98.6%
- viability, T/C (compound 1 µM): 63.7%
- viability, T/C (compound 3.16 µM): 77.5%
- viability, T/C (compound 10 µM): 2.29%

- IC50 (curve of compound): 7960 nM and > 10000 nM
SMILES: CC(CO)NC(=O)c1cc(-c2ccc(Cl)cc2)nn(-c2cnn(C)c2)c1=O (configuration not stated)
- viability, T/C (compound 0.0316 µM): 119% and 99.1%
- viability, T/C (compound 0.1 µM): 68.1% and 82.7%
- viability, T/C (compound 0.316 µM): 102% and 165%
- viability, T/C (compound 1 µM): 108% and 100%
- viability, T/C (compound 3.16 µM): 79.3% and 88.4%
- viability, T/C (compound 10 µM): 42.8% and 52.4%
